Laboratory results: US11691962B2 (eXIthera Pharmaceuticals, Inc., priority 2018, dated 2023)

molecular target: Factor XIa (Homo sapiens (Human), UniProt P03951); assay: Factor XIa enzyme inhibition assay (dose response, fluorogenic AMC substrate); format: biochemical; settings: read-out: hFXIa IC50
Protocol: • Assay buffer: 20 mM Hepes, pH 7.4; 150 mM NaCl; 0.02% Tween 20 • Compounds: 10 mM stocks in DMSO • Substrate: 20 mM Glp-Pro-Arg-AMC, 25 mg/2.3 mL H2O (store at +4° C.) [Factor XIa, thrombin, and trypsin] • 20 mM Pro-Phe-Arg-AMC (Bachem I-1295), 25 mg/2.2 mL H2O • or Boc-Leu-Gly-Arg-AMC (Bachem I-1105), 25 mg/2.07 mL H2O • (store at +4° C.) [Factor Xa] • Enzyme: Factor XIa; 0.25 μM in 50% glycerol (20 μg/mL) • Trypsin; 0.2 μM in 50% glycerol (4.8 μg/mL) • Thrombin; 0.2 μM in 50% glycerol (7.34 μg/mL) • Factor Xa; 0.2 μM in 50% glycerol (9.2 μg/mL) • These stocks are aliquoted (˜100 μL/aliquot) and stored at −20° C. Methods: • 1. Dilute the substrate to 100 μM in assay buffer (30 μL/6 mL). The enzyme is diluted to 0.5 nM just prior to use (12 μL/6 mL for Factor XIa; 15 μL/6 mL for all of the rest.) • 2. Pipette 50 μL of substrate into each well of the 96 well (12×8) microtiter plate. (Column 1 is used as the 100% activity control and receives no compound, and Column 12 is the blank and receives no enzyme.) Add an additional 46 μL to column 2. • 3. Pipette 4 μL of each compound into the appropriate well in column 2 of the plate (unknowns assayed in triplicate, standard assayed in duplicate). The final compound concentration will be […] of the stock. • 4. Serially two-fold dilute the compound by mixing the sample in column 2, removing 50 μL to the next well (column 3), mix and remove to column 4, etc. until column 11. After mixing column 11, remove 50 μL and discard. • 5. Pipette 50 μL of buffer into column 12. Initiate the reaction by adding 50 μL of enzyme solution to each well of columns 1-11 as rapidly as possible. • 6. Read the plate in a spectrophotometer (SpectraMax) at 30° C., wherein each well is measured every 60 s for 30 min. For Factor Xa assays, each well is measured every 1 min for a total of 60 min. • 7. For Factor XIa assays, the compounds are assayed, in duplicate, at 3 different starting concentrations, 20, 2, and 0.2 μM; 1:10, 1:100, and 1:1000 dilution of 10 mM stock or at 2, 0.2, and 0.02 μM; 1:100, 1:1000, and 1:10,000 dilution of 10 mM stock. Data for each concentration are combined for graphing and data fitting. • 8. Data can be used both for estimation of IC50 and for estimation of Kon.
Potential inhibitors of Factor XIa were evaluated using the following assay.
PyroGlu-Pro-Arg-7-methylaminocourin (AMC), available from CPC Scientific, Inc., is based on the substrate pyro-Glu-Pro-Arg-pNA (S-2366), available from Diapharma Group, Inc. (Columbus, Ohio), wherein the p-nitroanaline group is replaced with 7-methylaminocoumarin (AMC).
The final concentration of the substrate in the assay was 50 μM, and the final concentration of the enzyme was 0.25 nM. Inhibitors were tested by serial dilution over an appropriate range to yield a dose response curve for determination of the inhibitors' IC50 value. The assay mixture was read every minute for 30 minutes in order to generate progress curves. The plates were read in a Spectramax m5 Multimode Plate Reader (Molecular Devices LLC, Sunnyvale, Calif.). Dose response curves were fit to Equation 1 below in which A is the maximum inhibition, B is the minimum inhibition, C is the IC50, and D is the Hill coefficient. Y=[(A−B)/(1+(X/C)^D)]+B (Equation 1)

Chain of Factor XIa (P03951 388-625): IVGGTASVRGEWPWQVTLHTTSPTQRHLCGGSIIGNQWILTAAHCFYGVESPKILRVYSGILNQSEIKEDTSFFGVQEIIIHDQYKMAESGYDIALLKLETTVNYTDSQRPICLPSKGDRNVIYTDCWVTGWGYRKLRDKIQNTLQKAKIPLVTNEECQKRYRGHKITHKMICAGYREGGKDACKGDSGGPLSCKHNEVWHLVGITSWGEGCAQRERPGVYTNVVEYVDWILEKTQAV
Chain of Factor XIa (P03951 19-387 partner): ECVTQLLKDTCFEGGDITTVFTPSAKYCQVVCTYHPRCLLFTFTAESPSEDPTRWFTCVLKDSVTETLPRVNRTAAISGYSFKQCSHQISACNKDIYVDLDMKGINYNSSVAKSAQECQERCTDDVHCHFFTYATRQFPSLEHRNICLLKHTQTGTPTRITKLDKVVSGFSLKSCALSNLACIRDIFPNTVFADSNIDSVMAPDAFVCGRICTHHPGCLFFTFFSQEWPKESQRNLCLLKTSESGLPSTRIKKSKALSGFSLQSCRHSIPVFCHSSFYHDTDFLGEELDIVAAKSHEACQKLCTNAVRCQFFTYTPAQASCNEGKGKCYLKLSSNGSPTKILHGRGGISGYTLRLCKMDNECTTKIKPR

| Molecule | IC50 |
| --- | --- |
| CC[C@@H](NC(=O)N1C(=O)[C@H](Cc2ccnc(N)c2)[C@H]1C(=O)N(C)c1nccn1C)c1ccc(F)c(C)c1C [Compound 1-211, (2S,3R)-3-((2-aminopyridin-4-yl)methyl)-N2-(1-methyl-1H-imidazol-2-yl)-N1-((R)-1-(2,3-dimethyl-4-fluorophenyl)propyl)-N2-methyl-4-oxoazetidine-1,2-dicarboxamide] | < 10 nM |
| CC[C@@H](NC(=O)N1C(=O)[C@H](Cc2ccnc(N)c2)[C@H]1C(=O)N(C)c1nnco1)c1ccccc1 [Compound 1-167, (2S,3R)-3-((2-aminopyridin-4-yl)methyl)-N2-(1,3,4-oxadiazol-2-yl)-N1-((R)-1-phenylpropyl)-N2-methyl-4-oxoazetidine-1,2-dicarboxamide] | < 10 nM |
| CC[C@@H](NC(=O)N1C(=O)[C@H](Cc2cc(C)nc(N)c2)[C@H]1C(=O)N(C)c1ccnn1C)c1ccc(F)c(C)c1 [Compound 1-153, (2S,3R)-3-((2-amino-6-methylpyridin-4-yl)methyl)-N2-(1-methyl-1H-pyrazol-5-yl)-N1-((R)-1-(4-fluoro-3-methylphenyl)propyl)-N2-methyl-4-oxoazetidine-1,2-dicarboxamide] | < 10 nM |
| CC[C@@H](NC(=O)N1C(=O)[C@H](Cc2ccnc(N)c2)[C@H]1C(=O)N(C)c1nccn1C)C1CCCOC1 (stereo partly drawn) [Compound 1-126, (2S,3R)-3-((2-aminopyridin-4-yl)methyl)-N2-(1-methyl-1H-imidazol-2-yl)-N1-((R)-1-(oxan-3-yl)propyl)-N2-methyl-4-oxoazetidine-1,2-dicarboxamide] | 10 to 100 nM |
| CC[C@@H](NC(=O)N1C(=O)[C@H](Cc2cc(C)nc(N)c2)[C@H]1C(=O)N(C)c1cnn(C)c1)c1ccc(F)cc1C [Compound 1-180, (2S,3R)-3-((2-amino-6-methylpyridin-4-yl)methyl)-N2-(1-methyl-1H-pyrazol-4-yl)-N1-((R)-1-(4-fluoro-2-methylphenyl)propyl)-N2-methyl-4-oxoazetidine-1,2-dicarboxamide] | 10 to 100 nM |
| CC[C@@H](NC(=O)N1C(=O)[C@H](Cc2ccnc(N)c2)[C@H]1C(=O)N(C)C1=NC(=O)CN1C)c1ccccc1 [Compound 1-131, (2S,3R)-3-((2-aminopyridin-4-yl)methyl)-N2-(4-oxo-1-methyl-4,5-dihydro-1H-imidazol-2-yl)-N1-((R)-1-phenylpropyl)-N2-methyl-4-oxoazetidine-1,2-dicarboxamide] | 10 to 100 nM |
| (2S,3R)-3-((2-aminopyridin-4-yl)methyl)-N2-(1-methyl-1H-imidazol-2-yl)-N1-((R)-1-(3-chlorophenyl)propyl)-N1-methyl-N2-methyl-4-oxoazetidine-1,2-dicarboxamide [Compound 1-65] | 10 to 100 nM |
| CC[C@@H](NC(=O)N1C(=O)[C@H](Cc2ccnc(NC)c2)[C@H]1C(=O)N(C)c1cccs1)c1ccccc1 [Compound 1-40, (2S,3R)-3-((2-methylaminopyridin-4-yl)methyl)-N2-(thiophen-2-yl)-N1-((R)-1-phenylpropyl)-N2-methyl-4-oxoazetidine-1,2-dicarboxamide] | 10 to 100 nM |
| CC[C@@H](NC(=O)N1C(=O)[C@H](Cc2ccnc(N)c2)[C@H]1C(=O)N(C)c1nccn1C)C1CCOCC1 [Compound 1-122, (2S,3R)-3-((2-aminopyridin-4-yl)methyl)-N2-(1-methyl-1H-imidazol-2-yl)-N1-((R)-1-(oxan-4-yl)propyl)-N2-methyl-4-oxoazetidine-1,2-dicarboxamide] | 10 to 100 nM |
| CC[C@H](NC(=O)N1C(=O)[C@H](Cc2ccnc(N)c2)[C@H]1C(=O)N(C)c1nccn1C)c1cccc(F)c1 [Compound 1-220, (2S,3R)-3-((2-aminopyridin-4-yl)methyl)-N2-(1-methyl-1H-imidazol-2-yl)-N1-((S)-1-(3-fluorophenyl)propyl)-N2-methyl-4-oxoazetidine-1,2-dicarboxamide] | 10 to 100 nM |
| CC[C@@H](NC(=O)N1C(=O)[C@H](Cc2cc(C)nc(N)c2)[C@H]1C(=O)N(C)c1cnn(C)c1)c1ccc(F)cc1 [Compound 1-169, (2S,3R)-3-((2-amino-6-methylpyridin-4-yl)methyl)-N2-(1-methyl-1H-pyrazol-4-yl)-N1-((R)-1-(4-fluorophenyl)propyl)-N2-methyl-4-oxoazetidine-1,2-dicarboxamide] | 10 to 100 nM |
| CC(C)[C@@H](NC(=O)N1C(=O)[C@H](Cc2ccnc(N)c2)[C@H]1C(=O)N(C)c1nccn1C)c1ccccc1 [Compound 1-85, (2S,3R)-3-((2-aminopyridin-4-yl)methyl)-N2-(1-methyl-1H-imidazol-2-yl)-N1-((R)-1-phenyl-2-methylpropyl)-N2-methyl-4-oxoazetidine-1,2-dicarboxamide] | 10 to 100 nM |
| CC[C@@H](NC(=O)N1C(=O)[C@H](Cc2ccnc(N)c2)[C@H]1C(=O)N(C)c1ccn(C)n1)c1cccc(C)c1C [Compound 1-140, (2S,3R)-3-((2-aminopyridin-4-yl)methyl)-N2-(1-methyl-1H-pyrazol-3-yl)-N1-((R)-1-(2,3-dimethylphenyl)propyl)-N2-methyl-4-oxoazetidine-1,2-dicarboxamide] | < 10 nM |
| CC[C@@H](NC(=O)N1C(=O)[C@H](Cc2ccnc(N)c2)[C@H]1C(=O)N(C)c1ccnn1C)c1ccc(C)c(F)c1F [Compound 1-202, (2S,3R)-3-((2-aminopyridin-4-yl)methyl)-N2-(1-methyl-1H-pyrazol-5-yl)-N1-((R)-1-(2,3-difluoro-4-methylphenyl)propyl)-N2-methyl-4-oxoazetidine-1,2-dicarboxamide] | < 10 nM |
| CC[C@@H](NC(=O)N1C(=O)[C@H](Cc2cc(C)nc(N)c2)[C@H]1C(=O)N(C)c1ccnn1C)c1ccc(C)cc1F [Compound 1-160, (2S,3R)-3-((2-amino-6-methylpyridin-4-yl)methyl)-N2-(1-methyl-1H-pyrazol-5-yl)-N1-((R)-1-(2-fluoro-4-methylphenyl)propyl)-N2-methyl-4-oxoazetidine-1,2-dicarboxamide] | < 10 nM |
| CC[C@@H](NC(=O)N1C(=O)[C@H](Cc2ccnc(N)c2)[C@H]1C(=O)N(C)c1ccnn1C)c1ccc(C)c(F)c1 [Compound 1-216, (2S,3R)-3-((2-aminopyridin-4-yl)methyl)-N2-(1-methyl-1H-pyrazol-5-yl)-N1-((R)-1-(3-fluoro-4-methylphenyl)propyl)-N2-methyl-4-oxoazetidine-1,2-dicarboxamide] | < 10 nM |
| CC[C@H](NC(=O)N1C(=O)[C@H](Cc2ccnc(N)c2)[C@H]1C(=O)N(C)c1ccn(C)n1)c1cccc(Cl)c1 [Compound 1-93, (2S,3R)-3-((2-aminopyridin-4-yl)methyl)-N2-(1-methyl-1H-pyrazol-3-yl)-N1-((S)-1-(3-chlorophenyl)propyl)-N2-methyl-4-oxoazetidine-1,2-dicarboxamide] | 10 to 100 nM |
| CC[C@@H](NC(=O)N1C(=O)[C@H](Cc2ccnc(N)c2)[C@H]1C(=O)N(C)c1ccn(C)n1)c1ccccc1C [Compound 1-130, (2S,3R)-3-((2-aminopyridin-4-yl)methyl)-N2-(1-methyl-1H-pyrazol-3-yl)-N1-((R)-1-(2-methylphenyl)propyl)-N2-methyl-4-oxoazetidine-1,2-dicarboxamide] | < 10 nM |
| CC[C@@H](NC(=O)N1C(=O)[C@H](Cc2cc(C)nc(N)c2)[C@H]1C(=O)N(C)c1cnn(C)c1)c1cc(F)cc(F)c1 [Compound 1-189, (2S,3R)-3-((2-amino-6-methylpyridin-4-yl)methyl)-N2-(1-methyl-1H-pyrazol-4-yl)-N1-((R)-1-(3,5-difluorophenyl)propyl)-N2-methyl-4-oxoazetidine-1,2-dicarboxamide] | 10 to 100 nM |
